{
  "source": "paper PMC7956620",
  "about": "(Molecules, 2021)",
  "key": {"[1]": {"target": "T1, 5-HT3A receptor Y91A mutant (Homo sapiens, UniProt P46098, Y86A)", "T1 construct": "host or cells: Xenopus laevis oocytes injected with in vitro transcribed mRNA", "T1 sequence (P46098 24-478 Y86A)": "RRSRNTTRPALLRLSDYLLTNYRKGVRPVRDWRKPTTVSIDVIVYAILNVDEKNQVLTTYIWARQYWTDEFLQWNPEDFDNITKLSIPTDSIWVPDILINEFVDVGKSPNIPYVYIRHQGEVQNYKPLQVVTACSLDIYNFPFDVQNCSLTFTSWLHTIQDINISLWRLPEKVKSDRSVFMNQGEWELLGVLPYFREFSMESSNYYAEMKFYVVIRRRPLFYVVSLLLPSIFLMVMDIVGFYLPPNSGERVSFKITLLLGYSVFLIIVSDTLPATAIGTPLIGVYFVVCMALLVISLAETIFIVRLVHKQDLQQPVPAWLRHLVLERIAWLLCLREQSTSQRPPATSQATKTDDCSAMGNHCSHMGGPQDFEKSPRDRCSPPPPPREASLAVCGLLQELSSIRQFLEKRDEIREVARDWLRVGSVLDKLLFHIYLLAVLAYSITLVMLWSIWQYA", "assay": "two-electrode voltage clamp, Y91A mutant receptor in Xenopus oocytes", "type": "cell-based", "details": "100 µM chanoclavine, read-out: Inhibition Percentage (%)", "protocol": "(§1) The site-directed mutation of one or two amino acids was performed using sense and antisense primers and Pfu polymerase (QuickChange Site-Directed Mutagenesis Kit; Agilent, Santa Clara, CA, USA) and amplified by polymerase chain reaction (PCR) to increase the target domain. After removing the existing methylated cDNA using Dpn Ⅰ, the PCR products were transformed into Escherichia coli strain DH5α. The cDNA of the 5-HT3A receptor was linearized by Xho Ⅰ at the end of the multi-cloning site, followed by transcription using T7 polymerase and a transcription kit (mMESSAGE mMACHINE T7 Transcription Kit; Thermo Fisher Scientific, Waltham, MA, USA). […]\n(§2) To isolate oocytes, female Xenopus laevis were put into a container filled with ice and left for about one hour. […] When the Xenopus oocytes were ready for injection, 50 ng of mRNA was injected with a nanoliter injector (Drummond Scientific, Vernon Hills, IL, USA). […]\n(§3) The oocytes in which mRNA was expressed during the incubation period allowed for the estimation of channel or receptor properties for observing drug and ligand potential interactions using a two-electrode voltage clamp (OC-725C; Warner Instruments, Hamden, CT, USA) and Digidata (1322A; Molecular Devices, Sunnyvale, CA, USA). […] The voltage and current electrodes were filled with 3 M KCl (0.3–0.7 MΩ) and analyzed at a −80 mV holding potential. […]"}, "[2]": {"target": "T2, 5-HT3A receptor V133A mutant (Homo sapiens, UniProt P46098, V128A)", "T2 construct": "host or cells: Xenopus laevis oocytes injected with in vitro transcribed mRNA", "T2 sequence (P46098 24-478 V128A)": "T1 sequence (P46098 24-478 Y86A) with A63Y, V105A", "assay": "two-electrode voltage clamp, V133A mutant receptor in Xenopus oocytes", "type": "cell-based", "details": "100 µM chanoclavine, read-out: Inhibition Percentage (%)", "protocol": "as §1, §2, §3"}, "[3]": {"test_system": "5-HT3A receptor I228A mutant", "assay": "two-electrode voltage clamp, I228A mutant receptor in Xenopus oocytes", "type": "cell-based, human", "details": "100 µM chanoclavine", "protocol": "as §1, §2, §3"}, "[4]": {"target": "T3, 5-HT3A receptor R92A mutant (Homo sapiens, UniProt P46098, R87A)", "T3 construct": "host or cells: Xenopus laevis oocytes injected with in vitro transcribed mRNA", "T3 sequence (P46098 24-478 R87A)": "T1 sequence (P46098 24-478 Y86A) with A63Y, R64A", "assay": "two-electrode voltage clamp, R92A mutant receptor in Xenopus oocytes", "type": "cell-based", "details": "100 µM chanoclavine, read-out: Inhibition Percentage (%)", "protocol": "as §1, §2, §3"}, "mice": {"test_system": "mice", "design": "method as in PMID 31052510", "details": "mice ref 32; cited from earlier work"}},
  "note": "Residue numbers refer to the chain shown, from its start.",
  "data": [
    {"smiles": "CN[C@@H]1Cc2c[nH]c3cccc(c23)[C@H]1/C=C(\\C)CO", "note": "[chanoclavine]", "values": [
      {"measurement": "inhibition at 100 µM", "setting": "[1]", "result": "50.2 ± 5.1", "unit": "%"},
      {"measurement": "inhibition at 100 µM", "setting": "[2]", "result": "67.2 ± 9.9", "unit": "%"},
      {"measurement": "Inhibition Percentage (%)", "setting": "[3]", "result": "66.16 ± 9.2", "unit": "%"},
      {"measurement": "inhibition at 100 µM", "setting": "[4]", "result": "95.45 ± 0.3", "unit": "%"},
      {"measurement": "toxicity (gross hematology, blood chemistry, pathology, histology)", "setting": "mice", "result": "low toxicity"}
    ]}
  ]
}
